Values quoted from earlier work, collected in PMC3517478 (BMC Neurology, 2012).

Key:
[1] = test system: startle mutations of the glycine receptor; conditions: propofol 1–500 μM; Xenopus laevis oocytes; cited from earlier work
[2] = test system: transgenic mice (tg271Q-300); conditions: 15 mg/kg i.p.; cited from earlier work

## CC(C)c1cccc(C(C)C)c1O [propofol]
[1]
  effect on glycine induced maximal response: increases the glycine induced maximal response
[2]
  effect on startle symptoms (righting time, tremor): decreased righting time and abatements in tremor without sedative side effects
